Experiments:
[1] = Drug uptake in anesthetized cynomolgus monkey brain occipital lobe after 202.5 mins postinjection; assay type: ADME, organism-based, Macaca fascicularis; conditions: in vivo, 3.375 h
[2] = Drug uptake in anesthetized cynomolgus monkey brain frontal lobe after 197.5 mins postinjection; assay type: ADME, organism-based, Macaca fascicularis; conditions: in vivo
Putamen [3] = test: Drug uptake in anesthetized cynomolgus monkey brain putamen after 182.5 mins postinjection; assay type: ADME, organism-based, Macaca fascicularis; conditions: in vivo
Putamen [4] = test: Drug uptake in anesthetized cynomolgus monkey brain putamen after 187.5 mins postinjection; assay type: ADME, organism-based, Macaca fascicularis; conditions: in vivo, 3.125 h
Putamen [5] = test: Drug uptake in anesthetized cynomolgus monkey brain putamen after 192.5 mins postinjection; assay type: ADME, organism-based, Macaca fascicularis; conditions: in vivo
Putamen [6] = test: Drug uptake in anesthetized cynomolgus monkey brain putamen after 197.5 mins postinjection; assay type: ADME, organism-based, Macaca fascicularis; conditions: in vivo
Putamen [7] = test: Drug uptake in anesthetized cynomolgus monkey brain putamen after 202.5 mins postinjection; assay type: ADME, organism-based, Macaca fascicularis; conditions: in vivo, 3.375 h
Midbrain [8] = test: Drug uptake in anesthetized cynomolgus monkey brain midbrain after 182.5 mins postinjection; assay type: ADME, organism-based, Macaca fascicularis; conditions: in vivo
Midbrain [9] = test: Drug uptake in anesthetized cynomolgus monkey brain midbrain after 197.5 mins postinjection; assay type: ADME, organism-based, Macaca fascicularis; conditions: in vivo
Midbrain [10] = test: Drug uptake in anesthetized cynomolgus monkey brain midbrain after 202.5 mins postinjection; assay type: ADME, organism-based, Macaca fascicularis; conditions: in vivo, 3.375 h
Midbrain [11] = test: Drug uptake in anesthetized cynomolgus monkey brain midbrain after 207.5 mins postinjection; assay type: ADME, organism-based, Macaca fascicularis; conditions: in vivo
Pons [12] = test: Drug uptake in anesthetized cynomolgus monkey brain pons after 182.5 mins postinjection; assay type: ADME, organism-based, Macaca fascicularis; conditions: in vivo
Pons [13] = test: Drug uptake in anesthetized cynomolgus monkey brain pons after 197.5 mins postinjection; assay type: ADME, organism-based, Macaca fascicularis; conditions: in vivo
Pons [14] = test: Drug uptake in anesthetized cynomolgus monkey brain pons after 207.5 mins postinjection; assay type: ADME, organism-based, Macaca fascicularis; conditions: in vivo
Medulla [15] = test: Drug uptake in anesthetized cynomolgus monkey brain medulla after 192.5 mins postinjection; assay type: ADME, organism-based, Macaca fascicularis; conditions: in vivo
Medulla [16] = test: Drug uptake in anesthetized cynomolgus monkey brain medulla after 207.5 mins postinjection; assay type: ADME, organism-based, Macaca fascicularis; conditions: in vivo
[17] = Drug uptake in anesthetized cynomolgus monkey brain cerebellum after 182.5 mins postinjection; assay type: ADME, organism-based, Macaca fascicularis; conditions: in vivo
[18] = Drug uptake in anesthetized cynomolgus monkey brain cerebellum after 197.5 mins postinjection; assay type: ADME, organism-based, Macaca fascicularis; conditions: in vivo
[19] = Drug uptake in anesthetized cynomolgus monkey brain cerebellum after 202.5 mins postinjection; assay type: ADME, organism-based, Macaca fascicularis; conditions: in vivo, 3.375 h
[20] = Drug uptake in anesthetized cynomolgus monkey brain cerebellum after 207.5 mins postinjection; assay type: ADME, organism-based, Macaca fascicularis; conditions: in vivo
Caudate [21] = test: Drug uptake in anesthetized cynomolgus monkey brain caudate after 187.5 mins postinjection; assay type: ADME, organism-based, Macaca fascicularis, Caudate nucleus; conditions: in vivo, 3.125 h
Caudate [22] = test: Drug uptake in anesthetized cynomolgus monkey brain caudate after 197.5 mins postinjection; assay type: ADME, organism-based, Macaca fascicularis, Caudate nucleus; conditions: in vivo
Caudate [23] = test: Drug uptake in anesthetized cynomolgus monkey brain caudate after 207.5 mins postinjection; assay type: ADME, organism-based, Macaca fascicularis, Caudate nucleus; conditions: in vivo
Thalamus [24] = test: Drug uptake in anesthetized cynomolgus monkey brain thalamus after 187.5 mins postinjection; assay type: ADME, organism-based, Macaca fascicularis; conditions: in vivo, 3.125 h
Thalamus [25] = test: Drug uptake in anesthetized cynomolgus monkey brain thalamus after 192.5 mins postinjection; assay type: ADME, organism-based, Macaca fascicularis; conditions: in vivo
Thalamus [26] = test: Drug uptake in anesthetized cynomolgus monkey brain thalamus after 202.5 mins postinjection; assay type: ADME, organism-based, Macaca fascicularis; conditions: in vivo, 3.375 h
Thalamus [27] = test: Drug uptake in anesthetized cynomolgus monkey brain thalamus after 207.5 mins postinjection; assay type: ADME, organism-based, Macaca fascicularis; conditions: in vivo
[28] = Drug uptake in awake rhesus monkey brain frontal lobe after 13.5 mins postinjection; assay type: ADME, organism-based, Macaca mulatta; conditions: in vivo, 0.225 h
[29] = Drug uptake in awake rhesus monkey brain frontal lobe after 25 mins postinjection; assay type: ADME, organism-based, Macaca mulatta; conditions: in vivo
[30] = Drug uptake in awake rhesus monkey brain frontal lobe after 65 mins postinjection; assay type: ADME, organism-based, Macaca mulatta; conditions: in vivo
[31] = Drug uptake in awake rhesus monkey brain medulla after 7.5 mins postinjection; assay type: ADME, organism-based, Macaca mulatta; conditions: in vivo, 0.125 h
[32] = Drug uptake in awake rhesus monkey brain medulla after 85 mins postinjection; assay type: ADME, organism-based, Macaca mulatta; conditions: in vivo
[33] = Drug uptake in awake rhesus monkey brain medulla after 95 mins postinjection; assay type: ADME, organism-based, Macaca mulatta; conditions: in vivo
[34] = Drug uptake in awake rhesus monkey brain pons after 7.5 mins postinjection; assay type: ADME, organism-based, Macaca mulatta; conditions: in vivo, 0.125 h
[35] = Drug uptake in awake rhesus monkey brain pons after 25 mins postinjection; assay type: ADME, organism-based, Macaca mulatta; conditions: in vivo
[36] = Drug uptake in awake rhesus monkey brain pons after 65 mins postinjection; assay type: ADME, organism-based, Macaca mulatta; conditions: in vivo
[37] = Drug uptake in awake rhesus monkey brain midbrain after 35 mins postinjection; assay type: ADME, organism-based, Macaca mulatta; conditions: in vivo
[38] = Drug uptake in awake rhesus monkey brain midbrain after 55 mins postinjection; assay type: ADME, organism-based, Macaca mulatta; conditions: in vivo
[39] = Drug uptake in awake rhesus monkey brain midbrain after 85 mins postinjection; assay type: ADME, organism-based, Macaca mulatta; conditions: in vivo
[40] = Drug uptake in awake rhesus monkey brain midbrain after 105 mins postinjection; assay type: ADME, organism-based, Macaca mulatta; conditions: in vivo, 1.75 h
[41] = Ratio of drug uptake in putamen to cerebellum in awake rhesus monkey after 45 mins postinjection; assay type: ADME, organism-based, Macaca mulatta; conditions: in vivo, 0.75 h
[42] = Ratio of drug uptake in putamen to cerebellum in awake rhesus monkey after 105 mins postinjection; assay type: ADME, organism-based, Macaca mulatta; conditions: in vivo, 1.75 h
[43] = Ratio of drug uptake in thalamus to cerebellum in awake rhesus monkey after 17.5 mins postinjection; assay type: ADME, organism-based, Macaca mulatta; conditions: in vivo
[44] = Drug uptake in awake rhesus monkey brain putamen after 65 mins postinjection; assay type: ADME, organism-based, Macaca mulatta; conditions: in vivo
[45] = Drug uptake in awake rhesus monkey brain putamen after 75 mins postinjection; assay type: ADME, organism-based, Macaca mulatta; conditions: in vivo, 1.25 h
[46] = Drug uptake in awake rhesus monkey brain putamen after 95 mins postinjection; assay type: ADME, organism-based, Macaca mulatta; conditions: in vivo
[47] = Drug uptake in awake rhesus monkey brain caudate after 4.5 mins postinjection; assay type: ADME, organism-based, Macaca mulatta, Caudate nucleus; conditions: in vivo, 0.075 h
[48] = Drug uptake in awake rhesus monkey brain caudate after 10.5 mins postinjection; assay type: ADME, organism-based, Macaca mulatta, Caudate nucleus; conditions: in vivo, 0.175 h
[49] = Drug uptake in awake rhesus monkey brain caudate after 13.5 mins postinjection; assay type: ADME, organism-based, Macaca mulatta, Caudate nucleus; conditions: in vivo, 0.225 h
[50] = Drug uptake in awake rhesus monkey brain caudate after 25 mins postinjection; assay type: ADME, organism-based, Macaca mulatta, Caudate nucleus; conditions: in vivo
[51] = Drug uptake in awake rhesus monkey brain caudate after 85 mins postinjection; assay type: ADME, organism-based, Macaca mulatta, Caudate nucleus; conditions: in vivo
[52] = Drug uptake in awake rhesus monkey brain caudate after 95 mins postinjection; assay type: ADME, organism-based, Macaca mulatta, Caudate nucleus; conditions: in vivo
[53] = Ratio of drug uptake in pons to cerebellum in awake rhesus monkey after 7.5 mins postinjection; assay type: ADME, organism-based, Macaca mulatta; conditions: in vivo, 0.125 h
[54] = Ratio of drug uptake in thalamus to cerebellum in awake rhesus monkey after 105 mins postinjection; assay type: ADME, organism-based, Macaca mulatta; conditions: in vivo, 1.75 h
[55] = Drug uptake in awake rhesus monkey brain thalamus after 65 mins postinjection; assay type: ADME, organism-based, Macaca mulatta; conditions: in vivo
[56] = Drug uptake in awake rhesus monkey brain thalamus after 95 mins postinjection; assay type: ADME, organism-based, Macaca mulatta; conditions: in vivo
[57] = Ratio of drug uptake in frontal lobe to cerebellum in awake rhesus monkey after 35 mins postinjection; assay type: ADME, organism-based, Macaca mulatta; conditions: in vivo
[58] = Ratio of drug uptake in medulla to cerebellum in awake rhesus monkey after 4.5 mins postinjection; assay type: ADME, organism-based, Macaca mulatta; conditions: in vivo, 0.075 h
[59] = Drug uptake in awake rhesus monkey brain cerebellum after 25 mins postinjection; assay type: ADME, organism-based, Macaca mulatta; conditions: in vivo
[60] = Ratio of drug uptake in midbrain to cerebellum in awake rhesus monkey after 85 mins postinjection; assay type: ADME, organism-based, Macaca mulatta; conditions: in vivo

O=C(OCCC[18F])C1C2CCC(CC1c1cccc(/C=C\Br)c1)N2 (stereo not given)
Drug uptake [1]: 2.71
Drug uptake [2]: 2.23
Drug uptake (Putamen [3]): 4.09
Drug uptake (Putamen [4]): 3.87
Drug uptake (Putamen [5]): 3.92
Drug uptake (Putamen [6]): 3.78
Drug uptake (Putamen [7]): 3.82
Drug uptake (Midbrain [8]): 4.79
Drug uptake (Midbrain [9]): 4.54
Drug uptake (Midbrain [10]): 4.46
Drug uptake (Midbrain [11]): 4.46
Drug uptake (Pons [12]): 3.71
Drug uptake (Pons [13]): 3.36
Drug uptake (Pons [14]): 3.24
Drug uptake (Medulla [15]): 3.98
Drug uptake (Medulla [16]): 3.58
Drug uptake [17]: 2.27
Drug uptake [18]: 2.16
Drug uptake [19]: 2.13
Drug uptake [20]: 1.86
Drug uptake (Caudate [21]): 3.83
Drug uptake (Caudate [22]): 3.62
Drug uptake (Caudate [23]): 3.41
Drug uptake (Thalamus [24]): 3.88
Drug uptake (Thalamus [25]): 3.83
Drug uptake (Thalamus [26]): 3.84
Drug uptake (Thalamus [27]): 3.35

O=C(OCC[18F])C1C2CCC(CC1c1ccc(/C=C\I)cc1)N2 (stereo not given)
Drug uptake [28]: 1.57
Drug uptake [29]: 2.16
Drug uptake [30]: 2.25
Drug uptake [31]: 1.51
Drug uptake [32]: 2.66
Drug uptake [33]: 2.35
Drug uptake [34]: 1.24
Drug uptake [35]: 2.29
Drug uptake [36]: 2.49
Drug uptake [37]: 2.7
Drug uptake [38]: 2.76
Drug uptake [39]: 2.99
Drug uptake [40]: 3.24
Ratio [41]: 1.6
Ratio [42]: 2.5
Ratio [43]: 1.3
Drug uptake [44]: 3.31
Drug uptake [45]: 3.38
Drug uptake [46]: 3.34
Drug uptake [47]: 1.17
Drug uptake [48]: 1.73
Drug uptake [49]: 1.87
Drug uptake [50]: 2.75
Drug uptake [51]: 3.27
Drug uptake [52]: 3.19
Ratio [53]: 0.9
Ratio [54]: 2.8
Drug uptake [55]: 3.48
Drug uptake [56]: 3.79
Ratio [57]: 1
Ratio [58]: 1.3
Drug uptake [59]: 2.12
Ratio [60]: 1.6

Reference: ChEMBL document CHEMBL1151757, “Synthesis, radiosynthesis, and biological evaluation of fluorine-18-labeled 2beta-carbo(fluoroalkoxy)-3beta-(3'-((Z)-2-haloethenyl)phenyl)nortropanes: candidate radioligands for in vivo imaging of the serotonin transporter with positron emission tomography” (J Med Chem, 2008)
